Test [1] concerns the target T1, P. falciparum 2-trans-enoyl-ACP reductase (PfENR) (Plasmodium falciparum, UniProt C6KSZ2).
T1 construct: gene PF3D7_0615100; recombinant His-tagged PfENR (pGS-21a, E. coli BL21(DE3))
T1 sequence (C6KSZ2 96-432): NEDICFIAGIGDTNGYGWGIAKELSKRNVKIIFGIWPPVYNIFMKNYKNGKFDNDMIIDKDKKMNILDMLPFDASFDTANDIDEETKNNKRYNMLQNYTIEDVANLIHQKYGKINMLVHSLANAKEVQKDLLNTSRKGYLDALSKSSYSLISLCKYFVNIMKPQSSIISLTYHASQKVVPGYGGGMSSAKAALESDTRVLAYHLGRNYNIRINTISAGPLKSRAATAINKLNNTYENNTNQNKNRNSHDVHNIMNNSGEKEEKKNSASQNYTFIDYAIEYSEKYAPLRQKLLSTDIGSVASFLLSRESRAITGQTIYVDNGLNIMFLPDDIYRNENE
Description: NADH consumption enzymatic assay ([…] nm) with crotonyl-CoA, purified recombinant PfENR; positive control inhibitor. Type of test: biochemical.

Test [2] addresses T1, P. falciparum 2-trans-enoyl-ACP reductase (PfENR). Description: NADH consumption enzymatic assay ([…] nm) with crotonyl-CoA, purified recombinant PfENR. It counts as biochemical.

pIC50: −log10 of the molar value.

For orientation: pIC50 means the IC50 on a negative log10 scale, so that one unit is a factor of ten. Turning to `Oc1cc(Cl)ccc1Oc1ccc(Cl)cc1Cl` [TCL, Triclosan], the pIC50 in test [1] is 5.45. Take `CCc1ccc(Oc2ccc(NS(=O)(=O)c3ccc4ccccc4c3)cc2)cc1` [LG2, N-[4-(4-ethylphenoxy)phenyl]naphthalene-2-sulfonamide]: in test [2], the pIC50 is 5.40.

The values are drawn from article PMC11137734, “Exploring Novel Antimalarial Compounds Targeting Plasmodium falciparum Enoyl-ACP Reductase: Computational and Experimental Insights” (ACS Omega, 2024).
